Source: US11925667B2, “Engineered therapeutic probiotic system and method” (priority 2018, dated 2024)
Read-outs that look alike come from different tables or passages of the source.

Key:
[1] = test system: various colorectal, gastric and breast cancer cell lines; experiment: Growth inhibition in cancer cell lines; format: cell-based
From the text: (§1) Cell culture and toxicity assay. While HCT116 human colorectal carcinoma cells (ATCC, Manassas, USA), LoVo human colorectal adenocarcinoma cells (ATCC), AGS human gastric adenocarcinoma cells (ATCC), MCF7 human breast adenocarcinoma cells (ATCC), human esophageal smooth muscle primary cells (SMCs) (Cell Biologics, Chicago, USA) and CT26 mouse colorectal carcinoma cells (ATCC) are used according to the claimed invention, other illustrative cell lines may similarly be utilized. Cells are cleared of mycoplasma contamination prior to use using Mycoalert™ PLUS mycoplasma detection kit (Lonza). HCT116 cells are cultured in McCoy's 5A medium, LoVo and AGS cells in Ham's F12 medium, MCF7 cells in DMEM medium, CT26 cells in RPMI medium, and SMCs in the specific medium kit purchased from Cell Biologics. […]
(§2) Cellular viability is measured at 3 hours, 24 hours and 72 hours post-treatment using the MTT assay (Sigma, St. Louis, USA). […] The MTT readout is fitted to a dose-response curve to determine the GI50 value (Eq. 2). Absorbance (570 nm)=Bottom+(Top−Bottom)/(1+10^(([Inhibitor]−Log 10 GI50))) (Eq. 2) HlpA binding assay. […] The cancer 394 cells are washed twice with 1×PBS and measured for DAPI and RFP emission. The fluorescence emission is compared on the linear standard curve of stained cells against the average fluorescence emission to determine the binding ratio of E. coli to cancer cells.

[2] = test system: human esophageal smooth muscle primary cells (SMCs); experiment: Cell toxicity assay (MTT), SMC; format: cell-based; details: for GI50: Homo sapiens, read-out: GI 50 value
From the text: (§3) Cell culture and toxicity assay. While HCT116 human colorectal carcinoma cells (ATCC, Manassas, USA), LoVo human colorectal adenocarcinoma cells (ATCC), AGS human gastric adenocarcinoma cells (ATCC), MCF7 human breast adenocarcinoma cells (ATCC), human esophageal smooth muscle primary cells (SMCs) (Cell Biologics, Chicago, USA) and CT26 mouse colorectal carcinoma cells (ATCC) are used according to the claimed invention, other illustrative cell lines may similarly be utilized. Cells are cleared of mycoplasma contamination prior to use using Mycoalert™ PLUS mycoplasma detection kit (Lonza). HCT116 cells are cultured in McCoy's 5A medium, LoVo and AGS cells in Ham's F12 medium, MCF7 cells in DMEM medium, CT26 cells in RPMI medium, and SMCs in the specific medium kit purchased from Cell Biologics. In this illustrative embodiment, unless otherwise stated all cell culture media are purchased from Lonza (Walkersville, USA) and are supplemented with antibiotics (penicillin/streptomycin) and 5% fetal bovine serum (FBS, v/v). SMCs are prepared according to the manufacturer's protocol. All cell cultures are maintained at 37° C. and 5% CO2.
The MTT readout is fitted to a dose-response curve to determine the GI50 value (Eq. 2). Absorbance (570 nm)=Bottom+(Top−Bottom)/(1+10^(([Inhibitor]−Log 10 GI50))) (Eq. 2) HlpA binding assay. The HlpA gene sequence is optimized for E. coli expression, and the gene is cloned into a pET28b vector with an N-terminal GFP. GFP-HlpA and GFP are expressed using similar purification protocols, described above. […] Treated and adherent cells are washed with sterile PBS twice before staining with DAPI. The GFP/DAPI ratio is used to evaluate the binding ratio of protein binding per cell (Eq. 3). Ratio (GFP/DAPI)=Bottom+(Top−Bottom)/(1+10^(([Ligand]−Log 10 KD))) (Eq. 3) Similarly, N-terminal INP tagged to HlpA are cloned into the pBbE8K vector and co390 transformed with pBbE8a-RFP into E. coli Nissle. E. coli cells are cultured in LB supplemented with 50 mg/L ampicillin and 25 mg/L kanamycin and are induced with 1% arabinose. […] The cancer 394 cells are washed twice with 1×PBS and measured for DAPI and RFP emission. The fluorescence emission is compared on the linear standard curve of stained cells against the average fluorescence emission to determine the binding ratio of E. coli to cancer cells.

[3] = test system: MCF7 human breast adenocarcinoma cells; experiment: Cell toxicity assay (MTT), MCF7; format: cell-based; details: for GI50: Homo sapiens, MCF7, read-out: GI 50 value; for Complete inhibition: MCF7 breast
From the text: as §3, with “CO2. Cells are seeded in 96-well plates or on glass coverslips in 6-well plates at a density of […] and are cultured at 37° C. and 5% CO2 a day before protein-binding studies or co-culturing with transformed Nissle cells.” for “CO2.”
(§4) Cellular viability is measured at 3 hours, 24 hours and 72 hours post-treatment using the MTT assay (Sigma, St. Louis, USA). The inhibitory activity of myrosinase-converted AITC is performed by incubating cancer cells grown to 60% confluency with 0.1 μM of purified secreted I1 myrosinase with 0˜10 mM sinigrin at 37° C. and 5% CO2 and was sampled at 3 hours, 24 hours and 72 hours post-treatment. The MTT readout is fitted to a dose-response curve to determine the GI50 value (Eq. 2). Absorbance (570 nm)=Bottom+(Top−Bottom)/(1+10^(([Inhibitor]−Log 10 GI50))) (Eq. 2) HlpA binding assay. The HlpA gene sequence is optimized for E. coli expression, and the gene is cloned into a pET28b vector with an N-terminal GFP. GFP-HlpA and GFP are expressed using similar purification protocols, described above. […] Treated and adherent cells are washed with sterile PBS twice before staining with DAPI. The GFP/DAPI ratio is used to evaluate the binding ratio of protein binding per cell (Eq. 3). […] The cancer 394 cells are washed twice with 1×PBS and measured for DAPI and RFP emission. The fluorescence emission is compared on the linear standard curve of stained cells against the average fluorescence emission to determine the binding ratio of E. coli to cancer cells.

[4] = test system: various colorectal, gastric and breast cancer cell lines; experiment: Growth inhibition (MTT), summary over cancer cell lines; format: cell-based; details: read-out: 50% growth inhibition (GI50) values
From the text: as §1
The MTT readout is fitted to a dose-response curve to determine the GI50 value (Eq. 2). Absorbance (570 nm)=Bottom+(Top−Bottom)/(1+10^(([Inhibitor]−Log 10 GI50))) (Eq. 2) HlpA binding assay. […] The cancer 394 cells are washed twice with 1×PBS and measured for DAPI and RFP emission. The fluorescence emission is compared on the linear standard curve of stained cells against the average fluorescence emission to determine the binding ratio of E. coli to cancer cells.

[5] = test system: HCT116 human colorectal carcinoma cells; experiment: Cell toxicity assay (MTT), HCT116; format: cell-based; details: for Complete inhibition: HCT116 colorectal; for GI50: Homo sapiens, HCT-116, read-out: GI 50 value
From the text: as §3, with “CO2. Cells are seeded in 96-well plates or on glass coverslips in 6-well plates at a density of […] and are cultured at 37° C. and 5% CO2 a day before protein-binding studies or co-culturing with transformed Nissle cells.” for “CO2.”
as §4

[6] = test system: CT26 mouse colorectal carcinoma cells; experiment: Cell toxicity assay (MTT), CT26; format: cell-based; details: for Complete inhibition: CT26 colorectal; for GI50: Mus musculus, CT26, read-out: GI 50 value
From the text: as §3, with “CO2. Cells are seeded in 96-well plates or on glass coverslips in 6-well plates at a density of […] and are cultured at 37° C. and 5% CO2 a day before protein-binding studies or co-culturing with transformed Nissle cells.” for “CO2.”
as §4

[7] = test system: LoVo human colorectal adenocarcinoma cells; experiment: Cell toxicity assay (MTT), LoVo; format: cell-based; details: for GI50: Homo sapiens, LoVo, read-out: GI 50 value; for Complete inhibition: LoVo colorectal
From the text: as §3, with “CO2. Cells are seeded in 96-well plates or on glass coverslips in 6-well plates at a density of […] and are cultured at 37° C. and 5% CO2 a day before protein-binding studies or co-culturing with transformed Nissle cells.” for “CO2.”
as §4

[8] = test system: AGS human gastric adenocarcinoma cells; experiment: Cell toxicity assay (MTT), AGS; format: cell-based; details: for Complete inhibition: AGS gastric; for GI50: Homo sapiens, read-out: GI 50 value
From the text: as §3, with “CO2. Cells are seeded in 96-well plates or on glass coverslips in 6-well plates at a density of […] and are cultured at 37° C. and 5% CO2 a day before protein-binding studies or co-culturing with transformed Nissle cells.” for “CO2.”
as §4

[9] = test system: primary stem cells or other non-cancer cell lines; details: in words; cited from earlier work
[10] = test system: SMC (esophageal smooth muscle primary cells); experiment: Growth inhibition assay (MTT), SMC; format: cell-based, human; details: purified YebF-I1 fusion protein and sinigrin, in words
From the text: as §1
as §2, with “cells. […]” for “cells.”

[11] = test system: AGS gastric adenocarcinoma cells; experiment: Growth inhibition assay (MTT), AGS; format: cell-based, human
From the text: as §1
as §2, with “cells. […]” for “cells.”

[12] = test system: LoVo colorectal adenocarcinoma cells; experiment: Growth inhibition assay (MTT), LoVo; format: cell-based, human
From the text: as §1
as §2, with “cells. […]” for “cells.”

[13] = test system: MCF7 breast adenocarcinoma cells; experiment: Growth inhibition assay (MTT), MCF7; format: cell-based, human
From the text: as §1
as §2, with “cells. […]” for “cells.”

[14] = test system: CT26 colorectal carcinoma cells; experiment: Growth inhibition assay (MTT), CT26; format: cell-based, mouse
From the text: as §1
as §2, with “cells. […]” for “cells.”

[15] = test system: HCT116 colorectal carcinoma cells; experiment: Growth inhibition assay (MTT), HCT116; format: cell-based, human
From the text: as §1
as §2, with “cells. […]” for “cells.”

smooth muscle cells = experiment: HlpA binding assay (GFP/DAPI ratio), smooth muscle cells; set-up: species or system human
Protocol: as §4

LoVo = experiment: HlpA binding assay (GFP/DAPI ratio), LoVo; details: LoVo human colorectal cell line
Protocol: as §4

HCT116 = experiment: HlpA binding assay (GFP/DAPI ratio), HCT116; details: HCT116 human colorectal cell line
Protocol: as §4

[16] = test system: gastric (AGS) cancer cell line; experiment: HlpA binding assay (GFP/DAPI ratio), AGS; set-up: species or system human
Protocol: as §4

CT26 = experiment: HlpA binding assay (GFP/DAPI ratio), CT26; details: CT26 murine colorectal cell line
Protocol: as §4

[17] = test system: breast (MCF7) cancer cell line; experiment: HlpA binding assay (GFP/DAPI ratio), MCF7; set-up: species or system human
Protocol: as §4

[18] = 0.1 μM purified secreted I1 myrosinase with sinigrin
[19] = Homo sapiens, 0.1 μM purified secreted I1 myrosinase with 0~10 mM sinigrin, read-out: GI 50 value

## C=CCN=C=S [AITC, allyl isothiocyanate]
[1]; in words
  Inhibition of cancer cell growth compared with L-sulforaphane: poorer efficacy compared with L-sulforaphane
[2]
  GI50: 589 µM
  inhibition of primary smooth muscle cells: does not inhibit
[3]
  GI50: 104 µM
  Complete inhibition: <3 h
[4]
  GI50: ~100 µM
[5]
  Complete inhibition: <24 h
  GI50: 116 µM
[6]
  Complete inhibition: <24 h
  GI50: 15 µM
[7]
  GI50: 74 µM
  Complete inhibition: <24 h
[8]
  Complete inhibition: <24 h
  GI50: 18 µM

## C[S@@+]([O-])CCCCN=C=S [L-sulforaphane]
[1]; upon adding L-sulforaphane
  Growth inhibition observed within: ≤ 24 h
[2]; SMC primary cells, MTT
  GI50: 375 µM
[2]
  inhibition of primary smooth muscle cells: does not inhibit
[3]
  GI50: 29 µM
  Complete inhibition: <3 h
[4]; various colorectal, gastric and breast cancer cell lines
  GI50: < 100 µM
[5]
  Complete inhibition: <24 h
  GI50: 30 µM
[6]
  Complete inhibition: <24 h
  GI50: 45 µM
[7]
  GI50: 23 µM
  Complete inhibition: <24 h
[9]
  Effect on primary stem cells or other non-cancer cell lines: does not affect
[8]
  Complete inhibition: <24 h
  GI50: 15 µM

## C=CCN=C=S [YebF-I1-converted AITC, allyl isothiocyanate]
[10]
  Inhibition of primary smooth muscle cell line: no inhibition
[11]; [18]
  Complete inhibition: <24 h
[11]; [19]
  GI50: 26 µM
[12]; [18]
  Complete inhibition: <21 h
[12]; [19]
  GI50: 232 µM
[13]; [18]
  Complete inhibition: <24 h
[13]; [19]
  GI50: 139 µM
[14]; [18]
  Complete inhibition: <24 h
[14]; Mus musculus, 0.1 μM purified secreted I1 myrosinase with 0~10 mM sinigrin, read-out: GI 50 value
  GI50: 46 µM
[15]; [18]
  Complete inhibition: <24 h
[15]; Homo sapiens, HCT-116, 0.1 μM purified secreted I1 myrosinase with 0~10 mM sinigrin, read-out: GI 50 value
  GI50: 155 µM

## GFP-HlpA: purified N-terminal GFP-tagged Histone-like protein A (HlpA) from Streptococcus gallolyticus
Smooth muscle cells
  weaker binding affinity relative to colorectal cell lines: 6 fold
LoVo
  binding affinity: sub-micromolar
HCT116
  binding affinity: sub-micromolar
[16]
  binding: No binding
CT26
  binding affinity: sub-micromolar
[17]
  binding: No binding
